According to ChEMBL document CHEMBL1136358, “Discovery and initial SAR of 2-amino-5-carboxamidothiazoles as inhibitors of the Src-family kinase p56(Lck)” (Bioorg Med Chem Lett, 2003):

Experiments:
[1] = biological target: T1, Tyrosine-protein kinase Lck (Homo sapiens, UniProt P06239)
Description: Inhibitory activity human Lck(hLck) kinase

[2] = biological target: T2, Proto-oncogene tyrosine-protein kinase LCK (Mus musculus, UniProt P06240); assay: In vitro inhibition of murine Lck kinase.
[3] = biological target: T2, Proto-oncogene tyrosine-protein kinase LCK; assay: Inhibition of mouse p56 Lck tyrosine kinase
[4] = biological target: T1, Tyrosine-protein kinase Lck; assay: Inhibition of human p56 Lck tyrosine kinase
[5] = biological target: T1, Tyrosine-protein kinase Lck; assay: Inhibition of human Lck(hLck) kinase at 50 uM (Inactive)
[6] = biological target: T2, Proto-oncogene tyrosine-protein kinase LCK; assay: Inhibition of mouse Lck(mLck) kinase at 50 uM (Inactive)
[7] = biological target: Tyrosine-protein kinase Fyn (Homo sapiens, UniProt P06241); assay: Inhibition of Fyn kinase
Chain of Tyrosine-protein kinase Fyn (P06241 whole entry): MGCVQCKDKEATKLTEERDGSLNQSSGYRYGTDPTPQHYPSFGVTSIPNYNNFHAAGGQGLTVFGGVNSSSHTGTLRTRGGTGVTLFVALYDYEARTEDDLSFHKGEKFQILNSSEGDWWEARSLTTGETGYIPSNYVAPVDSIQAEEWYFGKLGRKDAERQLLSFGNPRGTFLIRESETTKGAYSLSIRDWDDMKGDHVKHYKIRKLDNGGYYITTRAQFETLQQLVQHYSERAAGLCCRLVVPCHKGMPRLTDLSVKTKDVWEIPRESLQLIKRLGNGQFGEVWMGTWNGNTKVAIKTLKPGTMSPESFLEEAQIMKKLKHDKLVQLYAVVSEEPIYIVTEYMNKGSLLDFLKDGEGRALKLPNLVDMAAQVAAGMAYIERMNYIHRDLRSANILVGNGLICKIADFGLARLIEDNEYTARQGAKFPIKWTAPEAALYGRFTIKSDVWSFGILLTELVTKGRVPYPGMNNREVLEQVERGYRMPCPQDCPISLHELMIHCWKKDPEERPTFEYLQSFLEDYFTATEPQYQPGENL

[8] = biological target: T3, Tyrosine-protein kinase JAK3 (Homo sapiens, UniProt P52333); assay: Inhibition of Jak3 kinase
T3 sequence (P52333 whole entry): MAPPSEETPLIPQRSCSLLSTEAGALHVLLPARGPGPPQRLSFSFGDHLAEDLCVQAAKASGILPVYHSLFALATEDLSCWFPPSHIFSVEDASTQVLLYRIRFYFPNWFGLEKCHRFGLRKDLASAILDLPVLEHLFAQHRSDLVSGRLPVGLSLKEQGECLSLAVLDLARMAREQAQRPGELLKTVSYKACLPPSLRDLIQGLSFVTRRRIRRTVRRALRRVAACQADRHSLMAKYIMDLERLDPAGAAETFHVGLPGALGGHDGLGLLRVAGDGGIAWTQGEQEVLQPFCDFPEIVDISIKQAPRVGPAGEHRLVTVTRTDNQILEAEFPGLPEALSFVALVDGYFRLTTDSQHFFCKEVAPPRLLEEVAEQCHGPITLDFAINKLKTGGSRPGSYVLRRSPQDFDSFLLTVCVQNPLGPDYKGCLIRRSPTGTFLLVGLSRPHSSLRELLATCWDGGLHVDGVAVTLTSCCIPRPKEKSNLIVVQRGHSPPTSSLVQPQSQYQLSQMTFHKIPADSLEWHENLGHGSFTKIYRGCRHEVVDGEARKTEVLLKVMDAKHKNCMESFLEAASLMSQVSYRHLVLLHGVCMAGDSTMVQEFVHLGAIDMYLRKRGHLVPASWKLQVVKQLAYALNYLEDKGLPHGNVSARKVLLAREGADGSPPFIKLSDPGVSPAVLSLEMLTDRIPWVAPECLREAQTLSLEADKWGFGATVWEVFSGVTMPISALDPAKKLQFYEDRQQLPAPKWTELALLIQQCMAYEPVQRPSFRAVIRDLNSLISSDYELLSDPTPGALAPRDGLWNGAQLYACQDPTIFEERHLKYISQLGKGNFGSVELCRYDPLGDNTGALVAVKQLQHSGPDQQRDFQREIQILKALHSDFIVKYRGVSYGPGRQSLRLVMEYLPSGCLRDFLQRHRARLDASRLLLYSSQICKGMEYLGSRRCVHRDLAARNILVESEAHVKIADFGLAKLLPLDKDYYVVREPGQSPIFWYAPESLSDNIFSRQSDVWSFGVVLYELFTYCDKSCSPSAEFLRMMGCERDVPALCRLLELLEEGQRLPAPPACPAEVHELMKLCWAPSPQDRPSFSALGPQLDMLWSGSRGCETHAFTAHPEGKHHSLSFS

Focal adhesion kinase 1 = Focal adhesion kinase 1 (Homo sapiens, UniProt Q05397); assay: Inhibition of FAK kinase
Chain of Focal adhesion kinase 1 (Q05397 whole entry): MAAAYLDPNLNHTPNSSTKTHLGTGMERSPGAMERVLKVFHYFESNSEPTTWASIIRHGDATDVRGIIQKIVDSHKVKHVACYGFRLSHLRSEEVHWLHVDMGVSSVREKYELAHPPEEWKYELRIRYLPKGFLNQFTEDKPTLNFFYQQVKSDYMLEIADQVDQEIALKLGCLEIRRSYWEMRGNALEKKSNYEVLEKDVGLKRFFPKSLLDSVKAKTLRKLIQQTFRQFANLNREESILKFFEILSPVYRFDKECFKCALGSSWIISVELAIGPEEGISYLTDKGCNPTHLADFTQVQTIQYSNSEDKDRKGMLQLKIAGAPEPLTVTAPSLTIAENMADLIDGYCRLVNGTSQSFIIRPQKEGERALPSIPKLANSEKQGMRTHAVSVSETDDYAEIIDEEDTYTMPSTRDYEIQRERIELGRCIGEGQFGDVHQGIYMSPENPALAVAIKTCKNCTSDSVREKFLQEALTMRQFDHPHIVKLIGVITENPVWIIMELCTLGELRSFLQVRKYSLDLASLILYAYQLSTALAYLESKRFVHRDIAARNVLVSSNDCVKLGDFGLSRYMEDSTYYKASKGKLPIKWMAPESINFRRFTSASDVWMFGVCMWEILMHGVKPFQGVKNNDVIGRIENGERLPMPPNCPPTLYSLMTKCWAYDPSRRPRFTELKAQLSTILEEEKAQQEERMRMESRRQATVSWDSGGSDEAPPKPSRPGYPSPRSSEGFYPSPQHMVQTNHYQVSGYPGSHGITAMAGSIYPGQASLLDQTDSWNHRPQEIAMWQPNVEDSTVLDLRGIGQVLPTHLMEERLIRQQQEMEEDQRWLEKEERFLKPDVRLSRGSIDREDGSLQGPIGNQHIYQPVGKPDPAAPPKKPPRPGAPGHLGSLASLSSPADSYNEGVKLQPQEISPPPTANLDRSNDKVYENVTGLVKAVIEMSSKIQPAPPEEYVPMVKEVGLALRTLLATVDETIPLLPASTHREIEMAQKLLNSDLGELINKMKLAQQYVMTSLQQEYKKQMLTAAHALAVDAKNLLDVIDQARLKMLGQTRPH

[9] = biological target: T1, Tyrosine-protein kinase Lck; assay: Inhibition of Lck kinase
[10] = biological target: Cyclin-dependent kinase 2 (Homo sapiens, UniProt P24941); assay: Inhibition of CDK2 kinase
[11] = biological target: Receptor tyrosine-protein kinase erbB-2 (Homo sapiens, UniProt P04626); assay: Inhibition of HER2 kinase
Chain of Receptor tyrosine-protein kinase erbB-2 (P04626 whole entry): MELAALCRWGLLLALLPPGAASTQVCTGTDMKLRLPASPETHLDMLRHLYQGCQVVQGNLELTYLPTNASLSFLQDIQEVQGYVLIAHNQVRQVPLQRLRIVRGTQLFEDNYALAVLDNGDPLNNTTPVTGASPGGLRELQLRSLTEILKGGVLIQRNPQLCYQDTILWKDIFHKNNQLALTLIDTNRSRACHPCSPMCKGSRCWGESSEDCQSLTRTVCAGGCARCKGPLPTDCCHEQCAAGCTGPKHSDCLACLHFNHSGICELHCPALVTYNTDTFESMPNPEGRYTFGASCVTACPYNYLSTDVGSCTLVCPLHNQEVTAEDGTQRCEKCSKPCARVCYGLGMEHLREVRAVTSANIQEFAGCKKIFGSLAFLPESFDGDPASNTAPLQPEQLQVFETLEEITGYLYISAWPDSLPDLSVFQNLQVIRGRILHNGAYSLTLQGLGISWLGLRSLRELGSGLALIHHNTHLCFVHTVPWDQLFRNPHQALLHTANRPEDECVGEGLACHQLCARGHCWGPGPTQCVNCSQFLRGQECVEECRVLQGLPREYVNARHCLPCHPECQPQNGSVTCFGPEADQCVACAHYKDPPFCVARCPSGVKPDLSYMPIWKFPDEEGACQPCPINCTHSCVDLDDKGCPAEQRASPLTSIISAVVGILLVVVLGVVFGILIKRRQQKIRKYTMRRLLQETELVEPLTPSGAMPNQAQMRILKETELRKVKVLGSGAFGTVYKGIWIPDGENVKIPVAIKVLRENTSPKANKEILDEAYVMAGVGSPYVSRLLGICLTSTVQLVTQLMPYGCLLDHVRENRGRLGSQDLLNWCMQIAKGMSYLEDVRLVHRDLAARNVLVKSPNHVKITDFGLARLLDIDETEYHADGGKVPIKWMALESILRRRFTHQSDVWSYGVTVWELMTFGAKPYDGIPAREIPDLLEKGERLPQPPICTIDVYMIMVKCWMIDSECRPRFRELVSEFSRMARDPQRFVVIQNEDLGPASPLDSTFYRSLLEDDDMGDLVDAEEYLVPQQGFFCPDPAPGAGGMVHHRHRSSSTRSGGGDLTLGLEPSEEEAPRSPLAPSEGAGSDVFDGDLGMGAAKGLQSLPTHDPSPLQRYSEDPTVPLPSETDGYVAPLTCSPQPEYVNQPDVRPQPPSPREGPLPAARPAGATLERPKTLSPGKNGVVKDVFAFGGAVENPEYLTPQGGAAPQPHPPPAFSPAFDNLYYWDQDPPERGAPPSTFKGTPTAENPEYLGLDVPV

[12] = biological target: Proto-oncogene tyrosine-protein kinase Src (Homo sapiens, UniProt P12931); assay: Inhibition of Src kinase
Chain of Proto-oncogene tyrosine-protein kinase Src (P12931 2-536 limits assumed): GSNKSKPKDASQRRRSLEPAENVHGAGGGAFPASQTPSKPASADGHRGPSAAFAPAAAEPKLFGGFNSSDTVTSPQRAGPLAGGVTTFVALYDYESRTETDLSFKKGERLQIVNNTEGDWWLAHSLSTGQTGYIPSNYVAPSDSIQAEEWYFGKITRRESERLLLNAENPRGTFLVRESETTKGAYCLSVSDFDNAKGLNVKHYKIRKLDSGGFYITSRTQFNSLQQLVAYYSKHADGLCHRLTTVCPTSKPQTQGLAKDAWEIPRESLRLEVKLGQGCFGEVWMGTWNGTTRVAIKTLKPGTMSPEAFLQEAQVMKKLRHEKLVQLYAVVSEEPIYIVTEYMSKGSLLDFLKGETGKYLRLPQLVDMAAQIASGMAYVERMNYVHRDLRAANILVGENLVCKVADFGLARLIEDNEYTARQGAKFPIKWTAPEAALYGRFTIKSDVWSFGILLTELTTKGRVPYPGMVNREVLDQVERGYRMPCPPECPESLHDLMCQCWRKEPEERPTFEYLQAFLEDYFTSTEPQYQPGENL

[13] = biological target: Fibroblast growth factor receptor (Homo sapiens, UniProt P22607+P11362+P22455+P21802); assay: Inhibition of FGF receptor; format: protein assay
[14] = biological target: Tyrosine-protein kinase HCK (Homo sapiens, UniProt P08631); assay: Inhibition of Hck kinase
Chain of Tyrosine-protein kinase HCK (P08631 whole entry): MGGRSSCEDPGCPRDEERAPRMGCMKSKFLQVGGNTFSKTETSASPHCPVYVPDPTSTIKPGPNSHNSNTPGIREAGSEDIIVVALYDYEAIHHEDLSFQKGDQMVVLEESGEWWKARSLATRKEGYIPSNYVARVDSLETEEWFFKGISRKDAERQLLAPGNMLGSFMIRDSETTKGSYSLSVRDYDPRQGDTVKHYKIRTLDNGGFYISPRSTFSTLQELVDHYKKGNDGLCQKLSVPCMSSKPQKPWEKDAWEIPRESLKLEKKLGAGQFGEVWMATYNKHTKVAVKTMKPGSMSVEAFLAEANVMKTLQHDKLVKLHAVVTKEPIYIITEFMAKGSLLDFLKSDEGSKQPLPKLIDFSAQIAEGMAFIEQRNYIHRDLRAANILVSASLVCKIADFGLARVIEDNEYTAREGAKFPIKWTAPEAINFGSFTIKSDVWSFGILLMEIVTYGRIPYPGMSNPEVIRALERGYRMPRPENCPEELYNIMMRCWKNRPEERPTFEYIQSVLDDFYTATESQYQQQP

[15] = biological target: T1, Tyrosine-protein kinase Lck; assay: Inhibition of human Lck(hLck) kinase

T2 sequence (P06240 whole entry): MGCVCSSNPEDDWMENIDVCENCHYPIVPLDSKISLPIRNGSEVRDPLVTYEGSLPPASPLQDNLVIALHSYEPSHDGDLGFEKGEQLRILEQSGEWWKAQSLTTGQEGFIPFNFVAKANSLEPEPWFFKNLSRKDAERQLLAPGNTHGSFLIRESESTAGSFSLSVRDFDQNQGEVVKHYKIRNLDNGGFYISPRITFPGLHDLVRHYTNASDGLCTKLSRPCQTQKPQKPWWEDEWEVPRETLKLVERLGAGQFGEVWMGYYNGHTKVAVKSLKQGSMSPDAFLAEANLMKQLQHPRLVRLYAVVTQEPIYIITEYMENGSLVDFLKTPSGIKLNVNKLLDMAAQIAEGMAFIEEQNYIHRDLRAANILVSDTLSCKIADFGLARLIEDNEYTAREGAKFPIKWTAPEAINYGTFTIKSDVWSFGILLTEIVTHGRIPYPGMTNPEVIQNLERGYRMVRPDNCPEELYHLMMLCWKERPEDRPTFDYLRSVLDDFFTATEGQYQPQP
T1 sequence (P06239 whole entry): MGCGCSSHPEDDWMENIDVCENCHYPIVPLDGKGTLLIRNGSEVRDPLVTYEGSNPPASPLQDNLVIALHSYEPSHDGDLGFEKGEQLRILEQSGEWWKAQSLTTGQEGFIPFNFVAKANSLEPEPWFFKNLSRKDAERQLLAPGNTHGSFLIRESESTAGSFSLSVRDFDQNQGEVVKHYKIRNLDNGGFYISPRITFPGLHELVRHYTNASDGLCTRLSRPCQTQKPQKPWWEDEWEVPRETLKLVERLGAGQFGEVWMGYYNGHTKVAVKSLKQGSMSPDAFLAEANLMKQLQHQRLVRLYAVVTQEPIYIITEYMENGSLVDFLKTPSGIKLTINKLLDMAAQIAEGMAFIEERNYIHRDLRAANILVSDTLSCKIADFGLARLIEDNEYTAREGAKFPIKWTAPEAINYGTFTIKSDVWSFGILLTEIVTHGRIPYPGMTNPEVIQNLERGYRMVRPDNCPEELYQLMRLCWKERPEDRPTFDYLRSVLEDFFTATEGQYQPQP

| SMILES | IC50 [1] | IC50 [2] | further results |
| --- | --- | --- | --- |
| Cc1cccc(Cl)c1NC(=O)c1sc(NC(=O)c2ccco2)nc1C | 710 nM | – | – |
| Cc1cccc(Cl)c1NC(=O)c1sc(NC(=O)C2CC2)nc1C | 1400 nM | – | – |
| Cc1cc(NC(=O)c2sc(NC(=O)OC(C)(C)C)nc2C)c(C)[nH]1 | – | > 50000 nM | – |
| Cc1ccccc1NC(=O)c1sc(NC(=O)OC(C)(C)C)nc1C | – | 45700 nM | – |
| Cc1cc(C)c(NC(=O)c2sc(NC(=O)OC(C)(C)C)nc2C(F)(F)F)c(C)c1 | > 30000 nM | – | – |
| COC(=O)Nc1nc(C)c(C(=O)Nc2c(C)cc(C)cc2C)s1 | 700 nM | 720 nM | – |
| Cc1nc(NC(=O)OC(C)(C)C)sc1C(=O)NCC(C)(C)C | – | > 50000 nM | – |
| Cc1cccc(C)c1NC(=O)c1sc(NC(=O)OC(C)(C)C)nc1C | – | – | IC50 [3]: 7500 nM; IC50 [4]: 4400 nM |
| Cc1nc(NC(=O)OC(C)(C)C)sc1C(=O)N1CCN(C=O)CC1 | – | > 50000 nM | – |
| CCCCNC(=O)Nc1nc(C)c(C(=O)Nc2c(C)cccc2Cl)s1 | 620 nM | – | – |
| Cc1cc(C)c(NC(=O)c2cnc(NC(=O)OC(C)(C)C)s2)c(C)c1 | > 30000 nM | – | – |
| Cc1cc(C)c(NC(=O)c2sc(NC(=O)c3ccccc3)nc2C)c(C)c1 | 800 nM | 320 nM | – |
| COc1cc(NC(=O)c2sc(NC(=O)OC(C)(C)C)nc2C)cc(C(F)(F)F)c1 | – | > 50000 nM | – |
| CCc1nc(NC(=O)OC(C)(C)C)sc1C(=O)Nc1c(C)cc(C)cc1C | > 30000 nM | – | – |
| Cc1nc(NC(=O)OC(C)(C)C)sc1C(=O)NC(C)C(C)C (centres undefined) | > 50000 nM | > 50000 nM | – |
| CCCCNC(=O)Nc1nc(C)c(C(=O)Nc2c(C)cc(C)cc2C)s1 | 30 nM | 70 nM | – |
| Cc1cc(C)c(NC(=O)c2sc(N(C)C(=O)OC(C)(C)C)nc2C)c(C)c1 | – | – | IC50 [5]: Not Active; IC50 [6]: Not Active |
| Cc1cccc(Cl)c1NC(=O)c1cnc(NC(=O)c2ccccc2)s1 | 890 nM | – | – |
| Cc1cccc(Cl)c1NC(=O)c1cnc(NC(=O)C2CC2)s1 | 35 nM | – | IC50 [7]: 71 nM; IC50 [8]: 44 nM; IC50 (Focal adhesion kinase 1): > 25000 nM; IC50 [9]: 35 nM; IC50 [10]: > 25000 nM; IC50 [11]: > 25000 nM; IC50 [12]: 10 nM; IC50 [13]: > 25000 nM; IC50 [14]: 310 nM |

| SMILES | IC50 [1] | IC50 [2] | further results |
| --- | --- | --- | --- |
| Cc1cc(C)c(NC(=O)c2sc(NC(=O)c3ccco3)nc2C)c(C)c1 | 360 nM | – | – |
| COc1cccc(C)c1NC(=O)c1sc(NC(=O)OC(C)(C)C)nc1C | – | 24300 nM | – |
| Cc1nc(NC(=O)OC(C)(C)C)sc1C(=O)Nc1c(Cl)cccc1Cl | – | – | IC50 [15]: 12500 nM |
| Cc1cc(C)c(NC(=O)c2sc(N)nc2C)c(C)c1 | – | – | IC50 [3]: 6600 nM; IC50 [4]: 5000 nM |
| Cc1cccc(Cl)c1NC(=O)c1sc(NC(=O)OC(C)(C)C)nc1C | – | – | IC50 [3]: 9600 nM; IC50 [4]: 28000 nM |
| Cc1nc(NC(=O)OC(C)(C)C)sc1C(=O)Nc1c(C(C)C)cccc1C(C)C | – | > 50000 nM | – |
| Cc1cccc(C(C)C)c1NC(=O)c1sc(NC(=O)OC(C)(C)C)nc1C | – | 40300 nM | – |
| Cc1nc(NC(=O)OC(C)(C)C)sc1C(=O)Nc1ccc(Cl)cc1Cl | – | > 50000 nM | – |
| Cc1cccc(Cl)c1NC(=O)c1sc(NC(=O)c2ccccc2)nc1C | 4500 nM | – | – |
| CNC(=O)Nc1nc(C)c(C(=O)Nc2c(C)cc(C)cc2C)s1 | 240 nM | 170 nM | – |
| Cc1cccc(C(C)(C)C)c1NC(=O)c1sc(NC(=O)OC(C)(C)C)nc1C | – | > 50000 nM | – |
| Cc1cc(C)c(NC(=O)c2cnc(NC(=O)C3CC3)s2)c(C)c1 | 18 nM | – | – |
| Cc1cc(Br)cc(C)c1NC(=O)c1sc(NC(=O)OC(C)(C)C)nc1C | – | – | IC50 [3]: 2400 nM; IC50 [4]: 1400 nM |
| Cc1cc(C)c(NC(=O)c2sc(NC(=O)OC(C)(C)C)nc2-c2ccccc2)c(C)c1 | > 30000 nM | – | – |
| Cc1nc(NC(=O)OC(C)(C)C)sc1C(=O)NCC1CCCCC1 | – | > 50000 nM | – |
| Cc1nc(NC(=O)OC(C)(C)C)sc1C(=O)Nc1ccccc1[N+](=O)[O-] | – | > 50000 nM | – |
| Cc1nc(NC(=O)OC(C)(C)C)sc1C(=O)Nc1ccccc1 | – | > 50000 nM | – |
| Cc1cc(C)c(N(C)C(=O)c2sc(NC(=O)OC(C)(C)C)nc2C)c(C)c1 | – | – | IC50 [5]: Not Active; IC50 [6]: Not Active |
| Cc1cc(C)c(NC(=O)c2sc(NC(=O)OC(C)(C)C)nc2C)c(C)c1 | – | – | IC50 [3]: 3000 nM; IC50 [4]: 1500 nM |
